# Test results from patent publication USRE42072E1, “Compositions and methods for enhancing receptor-mediated cellular internalization” (The Penn State Research Foundation, priority 1996, dated 2011).
# Like-named read-outs stand apart in the source and are kept apart here.
# Key:
# luteinizing hormone (LH) [1] = experiment: Daily vaginal DES in progesterone-primed ovariectomized ewes: basal LH and pituitary responsiveness; assay type: in vivo, sheep
# Experimental: The objective of this study was to determine if daily vaginal administration of DES in progesterone-primed ewes would cause a reduction in basal LH secretion and loss of pituitary responsiveness of GnRH. Six ovariectomized ewes were used for the study. Vaginal CIDR devices containing progesterone were inserted. Twenty-four hours later, ewes were dosed daily with 200 μg of DES (GnRH agonist) in 5 mL of gel. Each day, blood samples were collected at 0 and 120 minutes post-treatment. These times were selected in order to evaluate changes in basal secretion of LH (time 0) and the peak LH response following GnRH administration (time 120).
# luteinizing hormone (LH) [2] = experiment: Chronic daily vaginal dosing of DES in gel to suppress LH secretion, ovariectomized sheep without steroids; assay type: in vivo; conditions: no steroid
# Experimental: The objective was to determine if chronic vaginal dosing with 200 μg of deslorelin (“DES”) in gel would be able to suppress secretion of LH. […] doses of DES will result in the down-regulation of the anterior pituitary gland in sheep. Ovariectomized sheep were used for the study, since they secrete high levels of LH in the-absence of ovarian steroids. The sheep were dosed daily with DES in 5 mL of gel, or gel only for 17 days. A single blood sample was collected by jugular venipuncture. Plasma was collected and assayed for LH.
# luteinizing hormone (LH) [3] = experiment: CIDR device control study: LH release after vaginal DES; assay type: in vivo, sheep
# Experimental: Another study provided information about the role of the silastic CIDR device itself in the delivery process. The study was based on concern that the CIDR might be damaging the vaginal mucosa, allowing for GnRH transport by a non-selective mechanism. CIDR devices were inserted into six ewes. Five days later, all ewes were treated vaginally with DES. […] After the initial dosing, three ewes were treated with DES and three with gel alone every day for 18 days. At the end of the 18-day treatment period, all ewes were again treated with DES in gel. […] Consequently, by the time the second DES administration was given, the CIDR devices had been in place for approximately 24 days. The ewes therefore were no longer receiving adequate amounts of progesterone locally to maintain the vaginal transport system.
# luteinizing hormone (LH) [4] = experiment: LH release after DES in gel in ewes given systemic depot progesterone and ear implants of synthetic progestogen; assay type: in vivo, sheep
# Experimental: An attempt was made to treat ewes with progesterone using the systemic administration of a depot form of progesterone and ear implants of a synthetic progestogen. Pituitary release of LH was poor following the vaginal administration of DES in gel. When LH release in these animals was not observed, the gel from the same preparations used vaginally was injected subcutaneously. LH release was then obtained, confirming that the DES/gel preparations contained biologically active material. Given the consistent responses obtained in earlier experiments and those obtained more recently using the CIDR delivery system, it was concluded that the progesterone (generally) should be applied directly to the vagina in order to achieve sufficient local concentrations. Given that luteal phase sheep also respond well, systemic administration of greater amounts of progesterone than used here, in formulations that will maintain consistently high concentrations in the blood, should also work.
# luteinizing hormone (LH) [5] = assay type: in vivo, sheep
# Experimental: Ewes (n=12) were treated with progesterone using a vaginal CIDR device. In addition, six sheep received a 15 mm silastic implant of estradiol. Five days later, all sheep were treated vaginally with 200 μg of DES in gel. Blood samples were taken every 30 minutes for 2 hours following treatment and then every 60 minutes for an additional four hours.
# [6] = Bioavailability of peptides after vaginal administration to sheep, relative to intravenous injection; conditions: female, sheep, in vivo
# Experimental: (§1) First, a peptide that undergoes receptor-mediated transport across the vaginal epithelium was identified by studying the permeation of peptides of varying molecular weight in a sheep model. Peptides were delivered vaginally to sheep in 5 ml of aqueous or methocel solutions with typical peptide concentrations of 10-40 μg/ml. A group of 18 intact ewes were utilized for these experiments. For each study, sheep were randomly assigned to a treatment group. In GnRH studies where each animal received all possible treatment combinations, each animal was assigned to an initial treatment group at random and subsequently randomly to each of the remaining treatment groups. A minimum of 5 days (typically 10 or more days) was allowed between experiments on a given animal, to provide sufficient time for complete recovery of pituitary responsiveness to the highest doses of the GnRH agonist used A 16G 150 mm jugular catheter (Abbocath-T, Abbott Laboratories, Chicago, Ill.) was inserted and blood samples collected at 0, 30, 60, 90, 120, 180, 240, 360, 480 and 1440 min. after treatment. Luteinizing hormone (LH) levels were determined.
# LHRH analog was placed in methyl cellulose solutions (“methocels”) of varying apparent viscosity. […] First, 200 μg of leuprolide acetate in 5 ml of aqueous solutions with melhocel weight concentrations varying between 0% and 3.0% were vaginally administered.
# The enhanced bioavailability of LHRH also coincides with a longer-term release into the systemic circulation at the optimal methocel concentrations. […] To test this hypothesis, the efficacy of a second, physically cross-linked hydrogel that was believed would not enhance endocytosis, but whose apparent viscosity (in the range of hydrogel concentrations 0.0-5.5%) was similar to that of the methocels (in the range 0.0-3.0%) was examined.
# serum cortisol = experiment: Serum cortisol response to iv injection and vaginal administration of vasopressin; assay type: in vivo, sheep
# Experimental: FIGS. 1a and 1b are graphs showing serum responses to iv injection and vacinal administration of vasopressin and leuprolide acetate. […] Vasopressin was injected intravenously ([…]) through a jugular catheter. The peptide was delivered vaginally in 5 ml of aqueous solution (200 g does). Standard errors are based on n=6. […] LHRH analog was injected intravenously ([…]) into through a jugular catheter. The peptide was delivered vaginally in 5 ml of aqueous solution (200 g dose). Standard errors are based on n=6.
# as §1
# To determine whether membrane damage might explain the results shown in FIG. 2, vasopressin was vaginally administered in methocel solutions of 1.5 and 1.75%.
smiles,measurement,setting,value
"CCNC(=O)[C@@H]1CCCN1C(=O)[C@H](CCCN=C(N)N)NC(=O)[C@H](CC(C)C)NC(=O)[C@@H](Cc1c[nH]c2ccccc12)NC(=O)[C@H](Cc1ccc(O)cc1)NC(=O)[C@H](CO)NC(=O)[C@H](Cc1c[nH]c2ccccc12)NC(=O)[C@H](Cc1cnc[nH]1)NC(=O)[C@@H]1CCC(=O)N1 [DES, deslorelin]",ewes in which the change in LH between 0 and 120 minutes was greatest on the first day of administration,"luteinizing hormone (LH) [1]; 200 μg daily vaginally in 5 mL gel, progesterone-primed ovariectomized ewes",3 of 6
same,ewes that transport GnRH,luteinizing hormone (LH) [1]; after four days of exposure to progesterone,~100%
same,ewes with significant transport,luteinizing hormone (LH) [1]; after only 24 hours of exposure to progesterone,Approximately 50%
same,basal LH,"luteinizing hormone (LH) [1]; progesterone-primed ewes, daily treatment, time 0 sample (FIG. 8)",significant decreases
same,pituitary responsiveness with continued daily treatment,"luteinizing hormone (LH) [1]; progesterone-primed ewes, first-treatment LH differential set to 100% (FIG. 7)",significantly reduced
same,time over which the change in LH secretion continued to increase after initiation of treatment,luteinizing hormone (LH) [1]; the two remaining animals of six,5 to 7 days
same,pituitary responsiveness once the maximum response was achieved,luteinizing hormone (LH) [1]; the two remaining animals of six (Ewe 9),rapidly declined
same,"average LH concentrations, DES versus control (gel only) group",luteinizing hormone (LH) [2]; 200 μg daily vaginally in 5 mL gel for 17 days,no differences
same,LH secretion,luteinizing hormone (LH) [2]; between days 6 and 12 of daily vaginal dosing,slightly suppressed
same,ewes that displayed a robust release of LH,"luteinizing hormone (LH) [3]; DES in gel at end of 18-day period, CIDR in place approximately 24 days",none
same,ewes with a robust release of LH,luteinizing hormone (LH) [3]; vaginal treatment five days after CIDR insertion,Five of the six
same,LH release,luteinizing hormone (LH) [4]; same gel preparation injected subcutaneously,obtained
same,pituitary release of LH,"luteinizing hormone (LH) [4]; vaginal administration in gel, systemic depot progesterone and progestogen ear implants",poor
same,ewes that responded with a robust discharge of LH,"luteinizing hormone (LH) [5]; 200 μg vaginally in gel, 5 days after progesterone CIDR with or without estradiol implant, n=12",All ewes
same,time of peak LH,luteinizing hormone (LH) [5]; ewes treated only with progesterone,120 min
same,time of peak LH,luteinizing hormone (LH) [5]; ewes treated with progesterone and estradiol,240 min
same,lag time between vaginal administration and transport of sufficient amounts into the blood to cause LH release,luteinizing hormone (LH) [5]; in vivo,70 to 80 min
CC(C)C[C@H](NC(=O)[C@H](CCCCN)NC(=O)CNC(=O)[C@H](CC(C)C)NC(=O)[C@@H](NC(=O)[C@@H]1CSSC[C@H](N)C(=O)N[C@@H](CO)C(=O)N[C@@H](CC(N)=O)C(=O)N[C@@H](CC(C)C)C(=O)N[C@@H](CO)C(=O)N[C@@H]([C@@H](C)O)C(=O)N1)C(C)C)C(=O)N[C@@H](CO)C(=O)N[C@@H](CCC(N)=O)C(=O)N[C@@H](CCC(=O)O)C(=O)N[C@@H](CC(C)C)C(=O)N[C@@H](Cc1c[nH]cn1)C(=O)N[C@@H](CCCCN)C(=O)N[C@@H](CC(C)C)C(=O)N[C@@H](CCC(N)=O)C(=O)N[C@H](C(=O)N[C@@H](Cc1ccc(O)cc1)C(=O)N1CCC[C@H]1C(=O)N[C@@H](CCCNC(=N)N)C(=O)N[C@H](C(=O)N[C@@H](CC(N)=O)C(=O)N[C@H](C(=O)NCC(=O)N[C@@H](CO)C(=O)NCC(=O)N[C@H](C(=O)N1CCC[C@H]1C(N)=O)[C@@H](C)O)[C@@H](C)O)[C@@H](C)O)[C@@H](C)O [salmon calcitonin],bioavailability,[6],< 0.1%
NC(=O)CC[C@@H]1NC(=O)[C@H](Cc2ccccc2)NC(=O)[C@H](Cc2ccc(O)cc2)NC(=O)[C@@H](N)CSSC[C@@H](C(=O)N2CCC[C@H]2C(=O)N[C@@H](CCCN=C(N)N)C(=O)NCC(N)=O)NC(=O)[C@H](CC(N)=O)NC1=O [vasopressin],bioavailability,"[6]; 200 μg, vaginal administration in an aqueous buffer, leuprolide value based on biological response, read-out: bioavailability",< 0.1%
same,systemic cortisol levels,"serum cortisol; intravenous injection, within the first hour following treatment",high systemic cortisol levels
same,changes in concentrations of cortisol,serum cortisol; vaginal administration in methocel solutions of 1.5 and 1.75%,no detectable changes
same,change in systemic cortisol levels,"serum cortisol; vaginal administration, aqueous solution (FIG. 1a)",no detectable change
